Assay results taken from US20220296628A1, “RNA COMBINATIONS AND COMPOSITIONS WITH DECREASED IMMUNOSTIMULATORY PROPERTIES” (CureVac AG, priority 2019, published 2022).

How the values were obtained:
mice (strain 129SV) [1] = assay: In vivo bioluminescence imaging of PpLuc expression after i.v. injection of LNP-formulated PpLuc mRNA with or without oligonucleotide; parameters: species or system mouse; conditions: 24 hours post single i.v. injection, 10 μg or 30 μg of mRNA (either dose), oligo 20% or 6.7% mass, compared to PpLuc mRNA without Gm18 (FIG. 2)
Protocol: For preparation of Lipid nanoparticles (LNP) containing both PpLuc mRNA and 2-O-methylated oligonucleotide, first the 2′-O-methylated oligonucleotide was added to PpLuc mRNA at a weight percentage of either 20% or 6.7% (see Table 3). LNP containing PpLuc mRNA either with or without admixture of 2-O-methylated oligonucleotide were prepared using cationic lipid, cholesterol, PEG-lipid and a neutral lipid. The mRNA was diluted to 1 g/L in citrate buffer, pH 4. The ethanolic lipid solution was mixed with the aqueous RNA solution at a ratio of 1:3 (vol/vol) using a Nanoassemblr (PrecisionNanoSystems). The ethanol was then removed and the buffer replaced by 10 mM HEPES, pH 7.4 comprising 9% Sucrose by dialysis. Finally, the LNP-formulated RNA was adjusted to 0.2 g/L. For in vivo experiments, 8 weeks old female mice (around 25 g, strain 129SV) were injected with the various LNP formulations (see tables 4 and 5). 4 animals were used per group. 10 μg or 30 μg of mRNA formulated with or without 2′-O-methylated oligonucleotide were intravenously injected at a concentration of 0.2 g/l. Bioluminescence imaging was performed 6 hours and 24 hours post LNP injection. […] PpLuc expression was quantified from bioluminescence images recorded for 3 minutes starting 5 minutes after i.v. injection of 3 mg of luciferin (see Table 5).

mice (strain 129SV) [2] = assay: Serum cytokines by CBA 6 hours post LNP injection; format: in vivo, mouse; conditions: 6 hours post i.v. LNP injection, in a dose-dependent manner (oligo 20% or 6.7% mass), compared to PpLuc mRNA only (FIG. 4A)
Protocol: In supernatants collected from PBMC stimulated without or with 2-O-methylated oligonucleotide, the concentrations of IFN-α, IFN-γ, TNF, were measured by Cytometric Bead Array (CBA) according to the manufacturer's instructions (BD Biosciences) using the following kits: Human Soluble Protein Master Buffer Kit (catalog no. 558264), Assay Diluent (catalog no. 560104), Human IFN-α Flex Set (catalog no. 560379), Human IFN-γ Flex Set (catalog no. 558269), Human TNF Flex Set (catalog no. 560112); all kits from BD Biosciences. The data was analyzed using the FCAP Array v3.0 software (BD Biosciences). For preparation of Lipid nanoparticles (LNP) containing both PpLuc mRNA and 2-O-methylated oligonucleotide, first the 2′-O-methylated oligonucleotide was added to PpLuc mRNA at a weight percentage of either 20% or 6.7% (see Table 3). LNP containing PpLuc mRNA either with or without admixture of 2-O-methylated oligonucleotide were prepared using cationic lipid, cholesterol, PEG-lipid and a neutral lipid. The mRNA was diluted to 1 g/L in citrate buffer, pH 4. The ethanolic lipid solution was mixed with the aqueous RNA solution at a ratio of 1:3 (vol/vol) using a Nanoassemblr (PrecisionNanoSystems). The ethanol was then removed and the buffer replaced by 10 mM HEPES, pH 7.4 comprising 9% Sucrose by dialysis. Finally, the LNP-formulated RNA was adjusted to 0.2 g/L. For in vivo experiments, 8 weeks old female mice (around 25 g, strain 129SV) were injected with the various LNP formulations (see tables 4 and 5). 4 animals were used per group. 10 μg or 30 μg of mRNA formulated with or without 2′-O-methylated oligonucleotide were intravenously injected at a concentration of 0.2 g/l. Bioluminescence imaging was performed 6 hours and 24 hours post LNP injection. Blood was sampled 6 hours post LNP injection and terminally 24 hours post LNP injection. Immediately thereafter, mice were sacrificed, livers collected and placed in 1.5 ml PP tubes, frozen and stored until analysis (<−70° C.). To analyse the influence of the 2′-O-methylated oligonucleotide on immunostimulation, the concentrations of IFNγ, TNFα, IL-6, MIP-1β, RANTES, and MCP1 were measured in sera from blood collected 6 hours post LNP injection by Cytometric Bead Array (CBA), performed as described in paragraph 2.3. […] To further assess the influence of the 2′-O-methylated oligonucleotide on immunostimulation, the concentration of IFNα was measured in sera from blood collected 24 hours post LNP injection by ELISA.

5′-GAG CGmG CCA-3′ (GAGCNGCCA; 2'-O-methyl guanosine at position 5; 9mer oligonucleotide; modified_base (5)..(5) n can be any nucleotide, wherein the nucleotide is 2-O-methylated, preferably a 2-O-methylated guanosine) [Gm18, 9-mer 2′-O-methylated RNA oligonucleotide; position 5 is 2′-O-methylated guanosine (Gm); antagonist of TLR7 and 8]
increases the expression: expression of PpLuc (bioluminescence imaging) (mice (strain 129SV) [1])
strongly decreases the release: release of IFNγ in sera (mice (strain 129SV) [2]) | release of IL-6 in sera (mice (strain 129SV) [2]) | release of MCP1 in sera (mice (strain 129SV) [2]) | release of MIP-1β in sera (mice (strain 129SV) [2]) | release of RANTES in sera (mice (strain 129SV) [2]) | release of TNFα in sera (mice (strain 129SV) [2])
